We go through 6 compounds from patent US20240277658A1, “NLRP3 ACTIVATORS FOR USE IN THE TREATMENT OF INFECTIOUS DISEASES OR CANCER BY ACTIVATING NLRP3 INFLAMMASOME” (ALBERT-LUDWIGS-UNIVERSITÄT FREIBURG, priority 2020, published 2024).

In one assay the test system is BMDCs. Nature of the assay: LDH release (lytic cell death, pyroptosis) from LPS-primed BMDCs. To be noted: for Average (% positive control): LDH release; for cytotoxicity at 25 µM / cytotoxicity at 50 µM / cytotoxicity at 100 µM / cytotoxicity at 18.75 µM / cytotoxicity at 37.5 µM / cytotoxicity at 75 µM: Mus musculus, BMDC. The format is cell-based, mouse. The protocol:
(§1) This was tested in cell culture in several different in vitro assays classically used to investigate inflammasome activation. These include measuring inflammasome-dependent lytic cell death (pyroptosis) by detecting release of the cytosolic enzyme lactate dehydrogenase (LDH) using a commercial colorimetric assay and release of proinflammatory cytokines like IL-1β by enzyme-linked immunosorbent assay (ELISA), analyzing cleavage and activation of caspase-1 and IL-1β by immunoblotting and immunofluorescence imaging of ASC speck formation. Lytic cell death was determined via LDH release. Assay results for compounds are illustrated in the Tables below, wherein the concentration of the compounds tested had been 50 μM or as indicated in the table, and the concentration of the known activators has been tested with 5 μM of nigericin, 100 μM of each R837 and CL097. For classification of the activity of a given molecule, release of IL-1β was quantified as % of IL-1% of a respective control activator used for the experiment (highlighted in tables with bold letters). The compounds listes in Table 1 were classified into 4 groups depending on their ability to induce the NLRP3 inflammasome activation, assessed by % IL-1β release as compared to the positive control.
(§2) Mouse bone marrow-derived dendritic cells (BMDCs) were isolated from femurs and tibias previously described (Gross, Olaf, 2012, “Measuring the inflammasome”, Methods in molecular biology, Clifton, N.J., 844, pp. 199-222.). In brief, tibias and femurs were carefully removed and put to sterile 70% ethanol for 1 minute. Using a 22-G needle attached to a 20 ml-syringe filled with sterile flushing medium, the bone marrow was pressed through the mesh of a […] cell strainer. The cells were spun down by centrifugation at 400×g, 4° C. for 5 minutes and red blood cells lysed by resuspension and incubation for 5 minutes at room temperature in RBC lysis buffer. 9 ml of flushing medium were added and cells were again spun down by centrifugation at 400×g, 4° C. for 5 minutes. Cells were then resuspended in BMDC medium (RPMI, 10% fetal bovine serum, 1% penicillin-streptomycin100 U/ml, 20 ng/ml recombinant murine GM-CSF), counted and plated at a density of 0.5×10^6 cells ml^−1 in 10 ml medium and incubated at 37° C., 5% CO2 in a humidified incubator. After 2 days, 10 ml of fresh medium were added to the cells and after 4 days, the medium was fully exchanged to 20 ml of fresh medium. The cells were allowed to differentiate for 6 to 8 days before usage.
(§3) For canonical inflammasome activation BMDCs after 7-9 days of differentiation were harvested and counted with a Neubauer Chamber (Hecht Assistant) and the concentration was set to 1 Mio cells ml^−1. 100 μl cell suspension per well were seeded in 96-well plates. The cells were primed with 50 ng ml^−1 E. coli K12 ultra-pure LPS for 3 hours and subsequently treated with canonical inflammasome activators or experimental compounds for 3 hours if not indicated differently (incubation time FIG. 4D, 5, 7, 8, 11, 13-18: 3 h, FIG. 12: 4 h). Concentrations of the stimuli were as follows if not indicated differently: 5 μM nigericin, 100 μM imiquimod (also known as R837), 100 μM CL097, 100 μM R848, […] poly(dA:dT), 300 μg ml^−1 MSU. If an inhibitor was used before stimuli treatment, the inhibitor was added after 2.5 hours of priming and it was incubated for 30 minutes before inflammasome activation. Inhibitors were used as follows: 3 μM MCC950, 45 mM KCl, 30 μM ebselen (2-Phenyl-1,2-benzoselenazol-3-one), 5 μM cytochalasin D (see FIGS. 8, 11, 12 and 17).
(§4) All inflammasome stimulations were performed in three technical replicates for each condition. […]
In general terms: LDH in the medium is a marker of cell lysis.

A further assay addresses T1, NLRP3 inflammasome (Mus musculus, UniProt Q8R4B8).
T1 construct: endogenous in cells; host or cells: primary mouse bone marrow-derived dendritic cells (BMDCs), LPS-primed
Nature of the assay: IL-1β release from LPS-primed BMDCs (ELISA) as readout of NLRP3 inflammasome activation. It is filed as cell-based. How it is done: as §1, §2, §3, §4
A general note: An ELISA detects its analyte on a solid surface through an enzyme-linked reagent.

Where [1] appears, read: compound 50 μM, positive control nigericin 5 μM.
Where [2] appears, read: compound 50 μM, LPS-primed BMDCs, read-out: Average LDH release (% of max.).
The mark [3] stands for this setting: single replicates, compound 50 μM, LPS-primed BMDCs, read-out: LDH release (% of max.).
The mark [4] stands for this setting: IL-1β release, compound 50 μM, positive control nigericin 5 μM.
The mark [5] stands for this setting: compound 50 μM, LPS-primed BMDCs.
The mark [6] stands for this setting: single replicates, compound 50 μM, LPS-primed BMDCs.

Molecules are shown by their SMILES. Where “and” joins values, the source holds several entries; their conditions need not be identical. Identical values can stand only once. Like-named read-outs stand apart in the source and are kept apart here.

T1 sequence (Q8R4B8 whole entry): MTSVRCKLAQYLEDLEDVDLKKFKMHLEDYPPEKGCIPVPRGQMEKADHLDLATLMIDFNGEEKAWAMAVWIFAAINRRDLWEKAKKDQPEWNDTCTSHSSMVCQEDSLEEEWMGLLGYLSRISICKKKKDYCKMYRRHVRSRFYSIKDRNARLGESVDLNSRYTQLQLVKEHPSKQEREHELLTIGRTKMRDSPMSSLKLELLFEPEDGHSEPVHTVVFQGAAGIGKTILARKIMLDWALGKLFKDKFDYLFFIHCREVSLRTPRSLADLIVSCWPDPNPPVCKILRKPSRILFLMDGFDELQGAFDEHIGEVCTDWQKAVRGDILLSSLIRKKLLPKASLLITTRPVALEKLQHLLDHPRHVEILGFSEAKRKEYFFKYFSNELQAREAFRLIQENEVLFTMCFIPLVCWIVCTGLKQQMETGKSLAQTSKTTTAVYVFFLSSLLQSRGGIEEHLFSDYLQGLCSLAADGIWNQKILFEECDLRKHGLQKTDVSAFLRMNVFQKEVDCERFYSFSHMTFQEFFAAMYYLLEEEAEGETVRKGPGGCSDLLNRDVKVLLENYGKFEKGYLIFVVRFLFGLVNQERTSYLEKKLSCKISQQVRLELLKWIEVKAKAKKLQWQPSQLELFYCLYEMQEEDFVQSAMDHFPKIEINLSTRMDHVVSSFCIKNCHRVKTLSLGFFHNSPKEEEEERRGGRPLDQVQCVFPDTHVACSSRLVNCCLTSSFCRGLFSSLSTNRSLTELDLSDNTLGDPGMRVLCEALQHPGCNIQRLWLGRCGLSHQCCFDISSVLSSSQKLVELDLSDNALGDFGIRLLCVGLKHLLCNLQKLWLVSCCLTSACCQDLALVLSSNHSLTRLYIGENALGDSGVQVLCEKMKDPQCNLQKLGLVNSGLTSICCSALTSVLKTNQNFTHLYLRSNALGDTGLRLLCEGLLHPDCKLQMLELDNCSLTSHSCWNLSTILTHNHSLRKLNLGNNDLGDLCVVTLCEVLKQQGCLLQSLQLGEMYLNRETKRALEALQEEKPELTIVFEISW

`O=C(NCc1ccccc1)Nc1ccc2ncccc2c1` [EN11-16, 1-benzyl-3-(quinolin-6-yl)urea]: the “Average (% positive control)” value in the assay on BMDCs (25 μM, positive control EN22 25 μM) came out at 15.222 % positive control; in the assay on BMDCs (50 μM, positive control EN22 25 μM), 16.245 % positive control; in the assay with BMDCs (100 μM, positive control EN22 25 μM) it was 24.607 % positive control; at NLRP3 inflammasome (IL-1β, 25 μM, positive control EN22 25 μM) it was 0.555 % positive control; on NLRP3 inflammasome (IL-1β, 50 μM, positive control EN22 25 μM), 4.074 % positive control; at NLRP3 inflammasome (IL-1β, 100 μM, positive control EN22 25 μM), 22.016 % positive control. Also, the cytotoxicity at 25 µM in the assay on BMDCs (25 μM, EN11 series table, read-out: Average LDH release (% of max.)) stood at 7.74%; in the assay with BMDCs (25 μM, individual replicate values, EN11 series table, read-out: LDH release (% of max.)), 7.87%. Also, the cytotoxicity at 50 µM was determined as 8.26% in the assay on BMDCs (50 μM, EN11 series table, read-out: Average LDH release (% of max.)) and 8.33% with BMDCs (50 μM, individual replicate values, EN11 series table, read-out: LDH release (% of max.)). Moreover, the cytotoxicity at 100 µM was 14.2% in the assay with BMDCs (100 μM, individual replicate values, read-out: LDH release (% of max.)) and 12.5% in the assay on BMDCs (100 μM, read-out: Average LDH release (% of max.)). Besides, the “Average IL-1β” value is 0.008 ng/mL at NLRP3 inflammasome (25 μM, EN11 series table); 0.060 ng/mL at NLRP3 inflammasome (50 μM, EN11 series table); 0.325 ng/mL on NLRP3 inflammasome (100 μM). For the same compound, the “IL-1β” value is 0.010 ng/mL and 0.014 ng/mL and 0.000 ng/mL on NLRP3 inflammasome (25 μM, individual replicate values, EN11 series table); 0.068 ng/mL and 0.054 ng/mL and 0.058 ng/mL at NLRP3 inflammasome (50 μM, individual replicate values, EN11 series table); 0.334 ng/mL and 0.324 ng/mL and 0.315 ng/mL on NLRP3 inflammasome (100 μM, individual replicate values).
Turning to `O=C(Nc1ccccc1)Nc1ccc(NC(=O)c2ccco2)cc1` [L01.064, N-{4-[(phenylcarbamo-yl)amino]phenyl}furan-2-carboxamide], the “Average (% positive control)” value in the assay with BMDCs (setting [1]) worked out at 11.958 % positive control; on NLRP3 inflammasome (setting [4]), 1.014 % positive control. Also, the cytotoxicity at 50 µM in the assay with BMDCs (setting [2]) is 8.75%; in the assay on BMDCs (setting [3]), 8.96%. The “Average IL-1β” value on NLRP3 inflammasome (setting [5]) is 0.073 ng/mL. The “IL-1β” value on NLRP3 inflammasome (setting [6]) is 0.065 ng/mL and 0.054 ng/mL and 0.100 ng/mL.
Take `Cc1c(F)cccc1CN1CCCC(Cc2nc(-c3ccc(NC(=O)Nc4ccccc4)cc3)no2)C1` (stereo not drawn) [PM16, 1-(4-(5-((1-(3-fluoro-2-methylbenzyl)piperidin-3-yl)methyl)-1,2,4-oxadiazol-3-yl)phenyl)-3-phenylurea]: the cytotoxicity at 18.75 µM in the assay with BMDCs (section 1.4, 18.75 μM, read-out: Average LDH release (% of max.)) stood at 72.8%; with BMDCs (section 1.4, single replicates, 18.75 μM, read-out: LDH release (% of max.)), 72%. Also, the cytotoxicity at 37.5 µM in the assay on BMDCs (section 1.4, 37.5 μM, read-out: Average LDH release (% of max.)) was 90%; in the assay on BMDCs (section 1.4, single replicates, 37.5 μM, read-out: LDH release (% of max.)) it was 89%. Moreover, the cytotoxicity at 75 µM is 97.5% in the assay with BMDCs (section 1.4, 75 μM, read-out: Average LDH release (% of max.)) and 100% in the assay with BMDCs (section 1.4, single replicates, 75 μM, read-out: LDH release (% of max.)). Also, the “Average (% positive control)” value in the assay with BMDCs (section 1.4, 18.75 μM, positive control EN22 18.75 μM) stood at 102.052 % positive control; with BMDCs (section 1.4, 37.5 μM, positive control EN22 18.75 μM) it was 126.179 % positive control; in the assay on BMDCs (section 1.4, 75 μM, positive control EN22 18.75 μM) it was 136.598 % positive control; at NLRP3 inflammasome (IL-1β, 18.75 μM, positive control EN22 18.75 μM), 12.288 % positive control; at NLRP3 inflammasome (IL-1β, 37.5 μM, positive control EN22 18.75 μM) it was 13.380 % positive control; on NLRP3 inflammasome (IL-1β, 75 μM, positive control EN22 18.75 μM) it was 14.083 % positive control. Also, the results for the “Average IL-1β” value at NLRP3 inflammasome (18.75 μM), on NLRP3 inflammasome (37.5 μM) and on NLRP3 inflammasome (75 μM) were 0.777 ng/mL, 0.846 ng/mL and 0.890 ng/mL, respectively. In addition, the “IL-1β” value at NLRP3 inflammasome (18.75 μM, individual replicate values) was 0.764 ng/mL and 0.830 ng/mL and 0.736 ng/mL; on NLRP3 inflammasome (37.5 μM, individual replicate values) it was 0.895 ng/mL and 0.795 ng/mL and 0.848 ng/mL; on NLRP3 inflammasome (75 μM, individual replicate values), 0.876 ng/mL and 0.848 ng/mL and 0.948 ng/mL.
In the case of `O=C(Nc1ccccc1)Nc1cccc(NC(=O)C2CC2)c1` [L01.084, N-{3-[(phenylcarbamo-yl)amino]phenyl}cyclo-propanecarboxamide], the “Average (% positive control)” value in the assay with BMDCs (setting [1]) is 8.054 % positive control; on NLRP3 inflammasome (setting [4]), 1.362 % positive control. In addition, the values for the cytotoxicity at 50 µM in the assay on BMDCs (setting [2]) and in the assay with BMDCs (setting [3]) were 5.89% and 6%, respectively. Besides, on NLRP3 inflammasome (setting [5]), the “Average IL-1β” value came to 0.098 ng/mL. Further, the “IL-1β” value at NLRP3 inflammasome (setting [6]) was 0.083 ng/mL and 0.111 ng/mL and 0.099 ng/mL.
For `O=C(Nc1ccccc1)Nc1ccc(NC2CCOCC2)cc1` [L01.065, 1-{4-[(oxan-4-l)amino]-phenyl}-3-phenylurea], the “Average (% positive control)” value is given as 12.397 % positive control in the assay on BMDCs (setting [1]) and 0.928 % positive control at NLRP3 inflammasome (setting [4]). Besides, the cytotoxicity at 50 µM in the assay on BMDCs (setting [2]) turned out to be 9.07%; with BMDCs (setting [3]) it was 8.41%. For the same compound, the “Average IL-1β” value on NLRP3 inflammasome (setting [5]) came out at 0.067 ng/mL. For the same compound, on NLRP3 inflammasome (setting [6]), the “IL-1β” value is 0.052 ng/mL and 0.070 ng/mL and 0.077 ng/mL.
Take `O=C(Nc1ccccc1)Nc1cccc(NC(=O)c2ccoc2)c1` [L01.027, N-{3-[(phenylcarbamo-yl)amino]phenyl}furan-3-carboxamide]: the “Average (% positive control)” value with BMDCs (setting [1]) amounted to 9.387 % positive control; on NLRP3 inflammasome (setting [4]), 2.451 % positive control. For the same compound, the cytotoxicity at 50 µM worked out at 6.87% with BMDCs (setting [2]) and 5.2% with BMDCs (setting [3]). Also, on NLRP3 inflammasome (setting [5]), the “Average IL-1β” value is 0.176 ng/mL. Also, the “IL-1β” value on NLRP3 inflammasome (setting [6]) was 0.149 ng/mL and 0.197 ng/mL and 0.181 ng/mL.
